In patent publication US11453697B1, “Cyclic di-nucleotide compounds as sting agonists” (Merck Sharp & Dohme Corp., priority 2015, dated 2022):
Where two headings read alike, the source gives them in different places.

Experiments:
full-length HAQ STING = full-length HAQ STING (Homo sapiens (Human), UniProt Q86WV6, G230A/H232R/R293Q/R71H); test: 3H-cGAMP filtration binding assay (HAQ STING); conditions: competition with tritiated cGAMP, HAQ STING membrane
Source text: The ability of compounds to bind STING is quantified by the ability to compete with tritiated cGAMP ligand for human STING receptor membrane using a radioactive filter-binding assay. The binding assay employs STING receptor obtained from Hi-Five cell membranes overexpressing full-length HAQ STING prepared in-house and tritiated cGAMP ligand also purified in-house.
The ability of compounds to bind STING is quantified by their ability to compete with tritiated cGAMP ligand for human STING receptor membrane using a radioactive filter-binding assay.
The basic HAQ STING filtration assay protocol is as follows:
Compound and membrane then preincubated for 60 min at RT to allow compound binding to equilibrate. Following equilibration, 8 nM of [^3H] c-GAMP ligand was prepared by diluting into assay buffer, and 50 uL of this working stock was then manually added to each well of the assay plate. […] The filter plates were then dried at 55° C. for 30 min using a pressurized VWR oven before 30 uL of Ultima GoldF scintillate was added to each well. Tritium levels for each reaction well were then measured using a PerkinElmer TopCount plate reader.
After normalization to controls, the percent activity for each compound concentration was calculated by measuring the amount of remaining radioactivity. The plot of percent activity versus the log of compound concentration was fit with a 4-parameter dose response equation to calculate EC50 values.

[1] = test system: IFN-β secretion in THP1 cells; test: IFN-β secretion in THP1 cell culture (5 h); assay type: cell-based, human
How it was run: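 THP1 cells incubated with compound for 5 h at 37 °C, 5% CO2, and secreted IFN-β in supernatant quantified by AlphaLISA. Percent effect normalised to 30 uM cGAMP positive control and 0.3% DMSO. EC50 from 4-parameter fit.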

[2] = read-out: EC50 (nM), 3H-cGAMP filtration binding assay for HAQ STING
[3] = IFN-β secretion in THP1 cell culture, 5 h, compound at 30 μM, percent activation relative to 2′3′-cGAMP

full-length HAQ STING, sequence (Q86WV6 other isoform, or with tags, fused parts or gaps, stated change not applied): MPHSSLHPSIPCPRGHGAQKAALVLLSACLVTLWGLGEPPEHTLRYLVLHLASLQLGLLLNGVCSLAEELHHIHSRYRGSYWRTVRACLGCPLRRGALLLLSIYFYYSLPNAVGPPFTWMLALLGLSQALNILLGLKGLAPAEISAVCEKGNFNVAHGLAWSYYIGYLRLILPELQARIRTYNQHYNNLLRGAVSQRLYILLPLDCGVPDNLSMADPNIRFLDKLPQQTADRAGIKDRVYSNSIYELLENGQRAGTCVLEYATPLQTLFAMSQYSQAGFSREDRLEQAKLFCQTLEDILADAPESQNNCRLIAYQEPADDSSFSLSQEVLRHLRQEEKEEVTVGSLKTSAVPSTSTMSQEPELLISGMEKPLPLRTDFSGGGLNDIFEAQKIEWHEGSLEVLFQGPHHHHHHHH

Row | SMILES | EC50 (full-length HAQ STING; [2]) [nM] | EC50 (full-length HAQ STING; EC50 (nM), 3H-cGAMP filtration binding assay for HAQ STING) [nM] | % Effect at 30 μM relative to 2′3′-cGAMP [1] [%] | % Effect at 30 μM relative to 2′3′-cGAMP [1, 3] [%]
1 | Nc1nc2c(ncn2[C@@H]2O[C@@H]3COP(O)(=S)O[C@H]4C[C@H](n5cnc6c(=O)[nH]cnc65)O[C@@H]4COP(O)(=S)O[C@@H]2[C@@H]3F)c(=O)[nH]1 (single isomer, unassigned) [Example 305] |  | 326 | 50 | 
2 | Nc1nc2c(ncn2[C@@H]2O[C@@H]3COP(=O)(O)O[C@H]4[C@H](F)[C@H](n5cnc6c(=O)[nH]cnc65)O[C@@H]4COP(=O)(O)O[C@@H]2C3)c(=O)[nH]1 [Example 312, 2-amino-9-[(5S,7R,8R,12aR,14R,15S,15aR)-15-fluoro-2,10-dihydroxy-2,10-dioxido-14-(6-oxo-1,6-dihydro-9H-purin-9-yl)octahydro-12H-5,8-methanofuro[3,2-l] [1,3,6,9,11,2,10]pentaoxadiphosphacyclo-tetradecin-7-yl]-1,9-dihydro-6H-purin-6-one] | 122 |  |  | 90
3 | Nc1nc2c(ccn2[C@@H]2O[C@@H]3COP(=O)(O)O[C@H]4[C@@H](O)[C@H](n5ccc6c(N)ncnc65)O[C@@H]4COP(=O)(O)O[C@@H]2[C@@H]3O)c(=O)[nH]1 [Example 37, 2-amino-7-[(5R,7R,8R,12aR,14R,15R,15aS,16R)-14-(4-amino-7H-pyrrolo[2,3-d]pyrimidin-7-yl)-2,10,15,16-tetrahydroxy-2,10-dioxidooctahydro-12H-5,8-methanofuro[3,2-l][1,3,6,9,11,2,10]pentaoxadiphosphacyclotetradecin-7-yl]-3,7-dihydro-4H-pyrrolo[2,3-d]pyrimidin-4-one] | 620 |  |  | 57
4 | Nc1nc2c(ccn2[C@@H]2O[C@@H]3COP(=O)(O)O[C@H]4[C@@H](O)[C@H](n5cnc6c(N)ncnc65)O[C@@H]4COP(=O)(O)O[C@@H]2[C@@H]3O)c(=O)[nH]1 [Example 30, 2-amino-7-[(5R,7R,8R,12aR,14R,15R,15aS,16R)-14-(6-amino-9H-purin-9-yl)-2,10,15,16-tetrahydroxy-2,10-dioxidooctahydro-12H-5,8-methanofuro[3,2-l][1,3,6,9,11,2,10]pentaoxadiphosphacyclotetradecin-7-yl]-3,7-dihydro-4H-pyrrolo[2,3-d] pyrimidin-4-one] | 91 |  |  | 131
5 | Nc1ncnc2c1ncn2[C@@H]1O[C@@H]2COP(=O)(O)O[C@@H]3[C@H](O)[C@@H](COP(=O)(O)O[C@H]2[C@H]1O)O[C@H]3n1ncc2c(=O)[nH]cnc21 [Example 66, 1-[(5R,7R,8R,12aR,14R,15R,15aS,16R)-14-(6-amino-9H-purin-9-yl)-2,10,15,16-tetrahydroxy-2,10-dioxidooctahydro-12H-5,8-methanofuro[3,2-l][1,3,6,9,11,2,10]pentaoxadiphosphacyclotetradecin-7-yl]-1,5-dihydro-4H-pyrazolo[3,4-d]pyrimidin-4-one] | 117 |  |  | 54
6 | Nc1nc2c(ncn2[C@@H]2O[C@@H]3COP(=O)(O)O[C@H]4[C@H](F)[C@H](n5cnc6c(=O)[nH]cnc65)O[C@@H]4COP(=O)(O)O[C@@H]2[C@@H]3F)c(=O)[nH]1 [Example 315, 2-amino-9-[(5R,7R,8S,12aR,14R,15S,15aR,16R)-15,16-difluoro-2,10-dihydroxy-2,10-dioxido-14-(6-oxo-1,6-dihydro-9H-purin-9-yl)octahydro-12H-5,8-methanofuro [3,2-l][1,3,6,9,11,2,10]pentaoxadiphosphacyclotetradecin-7-yl]-1,9-dihydro-6H-purin-6-one] | 49.9 |  |  | 92
7 | Nc1nc2c(ncn2[C@@H]2O[C@@H]3COP(=O)(O)O[C@H]4[C@H](Cl)[C@H](n5cnc6c(=O)[nH]cnc65)O[C@@H]4COP(=O)(O)O[C@@H]2[C@@H]3O)c(=O)[nH]1 [Example 322, 2-amino-9-[(5R,7R,8R,12aR,14R, 15S,15aR,16R)-15-chloro-2,10,16-trihydroxy-2,10-dioxido-14-(6-oxo-1,6-dihydro-9H-purin-9-yl)octahydro-12H-5,8-methanofuro[3,2-l][1,3,6,9,11,2,10]pentaoxadiphosphacyclotetradecin-7-yl]-1,9-dihydro-6H-purin-6-one] | 68.8 |  |  | 41
8 | COCCc1ncnc2c1ncn2[C@@H]1O[C@@H]2COP(=O)(O)O[C@@H]3[C@H](O)[C@@H](COP(=O)(O)O[C@H]2[C@H]1O)O[C@H]3n1cnc2c(=O)[nH]c(N)nc21 [Example 57, 2-amino-9-{(5R,7R,8R,12aR,14R,15R,15aS,16R)-2,10,15,16-tetrahydroxy-14-[6-(2-methoxyethyl)-9H-purin-9-yl]-2,10-dioxidooctahydro-12H-5,8-methanofuro[3,2-l][1,3,6,9,11,2,10]pentaoxadiphosphacyclotetradecin-7-yl}-1,9-dihydro-6H-purin-6-one] | 438 |  |  | 7

Further lines, with some results ahead:

Row | EC50 (full-length HAQ STING; [2]) [nM] | SMILES | EC50 (full-length HAQ STING; EC50 (nM), 3H-cGAMP filtration binding assay for HAQ STING) [nM] | % Effect at 30 μM relative to 2′3′-cGAMP [1] [%] | % Effect at 30 μM relative to 2′3′-cGAMP [1, 3] [%]
9 | 2.6 | Nc1nc2c(ncn2[C@@H]2O[C@@H]3COP(=O)(O)O[C@H]4[C@@H](O)[C@H](n5cnc6c(N)ncnc65)O[C@@H]4COP(=O)(O)O[C@@H]2[C@@H]3N)c(=O)[nH]1 [Example 75, 2-Amino-9-[(5S,7R,8R,12aR,14R,15R,15aS,16R)-16-amino-14-(6-amino-9H-purin-9-yl)-2,10,15-trihydroxy-2,10-dioxidooctahydro-12H-5,8-methanofuro[3,2-l][1,3,6,9,11,2,10]pentaoxadiphosphacyclotetradecin-7-yl]-1,9-dihydro-6H-purin-6-one] |  |  | 96
10 | 2.3 | [N-]=[N+]=N[C@H]1[C@H]2OP(=O)(O)OC[C@H]3O[C@@H](n4cnc5c(O)ncnc54)[C@H](O)[C@@H]3OP(=O)(O)OC[C@H]1O[C@H]2n1cnc2c(=O)[nH]c(N)nc21 [Example 302, 2-amino-9-[(5S,7R,8R,12aR,14R,15R,15aS,16R)-16-azido-2,10,15-trihydroxy-14-(6-hydroxy-9H-purin-9-yl)-2,10-dioxidooctahydro-12H-5,8-methanofuro[3,2-l] [1,3,6,9,11,2,10]pentaoxadiphosphacyclo-tetradecin-7-yl]-1,9-dihydro-6H-purin-6-one] |  |  | 103
11 | 1.9 | Nc1nc2c(ncn2[C@@H]2O[C@@H]3COP(=O)(O)O[C@H]4[C@@H](F)[C@H](n5cnc6c(=O)[nH]cnc65)O[C@@H]4COP(=O)(O)O[C@@H]2[C@@H]3O)c(=O)[nH]1 [Example 293, 2-amino-9-[(5R,7R,8R,12aR,14R,15R,15aR,16R)-15-fluoro-2,10,16-trihydroxy-2,10-dioxido-14-(6-oxo-1,6-dihydro-9H-purin-9-yl)octahydro-12H-5,8-methanofuro[3,2-l] [1,3,6,9,11,2,10]pentaoxadiphosphacyclo-tetradecin-7-yl]-1,9-dihydro-6H-purin-6-one] |  |  | 86
12 | 6.2 | Nc1nc2c(ncn2[C@@H]2O[C@@H]3COP(=O)(S)O[C@H]4[C@H](F)[C@H](n5cnc6c(=O)[nH]cnc65)O[C@@H]4COP(=O)(S)O[C@@H]2C3)c(=O)[nH]1 (single isomer, unassigned) [Example 318] |  |  | 150
